Data published in patent US3984393A, “Aminoglycoside antibiotics” (The Upjohn Company, priority 1975, dated 1976).
Converted amounts (≈) assume the structure as drawn. Like-named read-outs stand apart in the source and are kept apart here.

Legend:
[1] = tested on: B. cereus; test: standard disc plate assay, 12.5 mm paper discs (zone of inhibition), B. cereus; assay type: cell-based, Bacillus cereus
Source text: (§1) The novel intermediates, disclosed herein, are useful to make novel aminoglycoside antibiotics. These novel aminoglycoside antibiotics are antibacterially active, and, thus, they can be used in various environments to eradicate or control sensitive bacteria. Following are in vitro antibacterial test results for representative compounds of the subject invention. The results were obtained with a standard disc plate assay using 12.5 mm paper discs.

[2] = tested on: B. subtilis; test: standard disc plate assay, 12.5 mm paper discs (zone of inhibition), B. subtilis; assay type: cell-based, Bacillus subtilis
Source text: as §1

[3] = tested on: S. aureus UC 76; test: standard microplate test in BHI Agar (MIC), S. aureus UC 76; assay type: cell-based, Staphylococcus aureus; settings: Staphylococcus aureus, UC76, 20 h
Protocol: (§2) Compounds were also tested in a standard microplate test in Brain Heart Infusion (BHI) Agar, at a concentration of 1 mg/ml. Incubation is at 37° and end points are read at 20 hours. Brain Heart Infusion Agar (supplied by Difco Laboratories, Detroit, Michigan, U.S.A.) has the following composition:
(§3) Compounds (7β), (7α) and (9) were tested again along with compounds (11) and (14β) against a neamine control using the same conditions as given above.

[4] = tested on: S. aureus UC 570; test: standard microplate test in BHI Agar (MIC), S. aureus UC 570; assay type: cell-based; settings: Staphylococcus aureus, UC570, 20 h, 37°, first table, read-out: Minimum Inhibitory Concentration
Protocol: as §2, with “composition: […]” for “composition:”

[5] = tested on: S. aureus UC 746; test: standard microplate test in BHI Agar (MIC), S. aureus UC 746; assay type: cell-based; settings: Staphylococcus aureus, UC746, 37°, 20 h, first table, read-out: Minimum Inhibitory Concentration
Protocol: as §2, with “composition: […]” for “composition:”

[6] = tested on: S. hemolyticus UC 152; test: standard microplate test in BHI Agar (MIC), S. hemolyticus UC 152; assay type: cell-based, Streptococcus hemolyticus; settings: Streptococcus pyogenes, UC152, 20 h
Protocol: as §2, §3

[7] = tested on: St. faecalis UC 694; test: standard microplate test in BHI Agar (MIC), St. faecalis UC 694; assay type: cell-based; settings: Enterococcus faecalis, UC694, 20 h, read-out: Minimum Inhibitory Concentration
Protocol: as §2, §3

[8] = tested on: E. coli UC 45; test: standard microplate test in BHI Agar (MIC), E. coli UC 45; assay type: cell-based; settings: Escherichia coli, UC45, 20 h
Protocol: as §2, §3

[9] = tested on: P. vulgaris UC 93; test: standard microplate test in BHI Agar (MIC), P. vulgaris UC 93; assay type: cell-based; settings: Proteus vulgaris, UC93, 20 h
Protocol: as §2, §3

[10] = tested on: K. pneumoniae UC 58; test: standard microplate test in BHI Agar (MIC), K. pneumoniae UC 58; assay type: cell-based; settings: Klebsiella pneumoniae, UC58, 20 h
Protocol: as §2, §3

[11] = tested on: S. schottmuelleri UC 126; test: standard microplate test in BHI Agar (MIC), S. schottmuelleri UC 126; assay type: cell-based; settings: 20 h, BHI agar, 37°, first table, read-out: Minimum Inhibitory Concentration
Protocol: as §2, §3

[12] = tested on: Ps. aeruginosa UC 95; test: standard microplate test in BHI Agar (MIC), Ps. aeruginosa UC 95; assay type: cell-based; settings: Pseudomonas aeruginosa, UC95, 20 h, Ps. aeruginosa UC 95, read-out: Minimum Inhibitory Concentration
Protocol: as §2, §3

[13] = tested on: D. pneumoniae UC 41; test: standard microplate test in BHI Agar (MIC), D. pneumoniae UC 41; assay type: cell-based; settings: Streptococcus pneumoniae, UC41, 20 h
Protocol: as §2, §3

[14] = tested on: P. mirabilis A-63; test: standard microplate test in BHI Agar (MIC), P. mirabilis A-63; assay type: cell-based; settings: Proteus mirabilis, A63, 20 h; P. mirabilis A-63; retest table, group (9), (11), (7α), neamine control; read-out: Minimum Inhibitory Concentration
Protocol: as §2, §3

[15] = tested on: P. morgani UC 3186; test: standard microplate test in BHI Agar (MIC), P. morgani UC 3186; assay type: cell-based; settings: 20 h, read-out: Minimum Inhibitory Concentration, P. morgani UC 3186; retest table, group (9), (11), (7α), neamine control
Protocol: as §2, §3

[16] = tested on: P. rettgeri UC 339; test: standard microplate test in BHI Agar (MIC), P. rettgeri UC 339; assay type: cell-based; settings: Providencia rettgeri, UC339, 20 h; P. rettgeri UC 339; retest table, group (9), (11), (7α), neamine control; read-out: Minimum Inhibitory Concentration
Protocol: as §2, §3

[17] = tested on: S. marcescens UC 131; test: standard microplate test in BHI Agar (MIC), S. marcescens UC 131; assay type: cell-based; settings: Serratia marcescens, UC131, 20 h; S. marcescens UC 131; retest table, group (9), (11), (7α), neamine control; read-out: Minimum Inhibitory Concentration
Protocol: as §2, §3

[18] = tested on: S. flexneri UC 143; test: standard microplate test in BHI Agar (MIC), S. flexneri UC 143; assay type: cell-based; settings: Shigella flexneri, UC143, 20 h, retest table, group (9), (11), (7α), neamine control, read-out: Minimum Inhibitory Concentration
Protocol: as §2, §3

[19] = tested on: S. typhi TG-3; test: standard microplate test in BHI Agar (MIC), S. typhi TG-3; assay type: cell-based; settings: Salmonella enterica, 20 h, read-out: Minimum Inhibitory Concentration
Protocol: as §2, §3

[20] = conclusion in words from the above results

NC[C@H]1O[C@H](O[C@H]2[C@H](O)[C@@H](O[C@H]3O[C@H](CO)[C@@H](O)[C@H]3O)[C@H](N)C[C@@H]2N)[C@H](N)[C@@H](O)[C@@H]1O [(7α), 6-O-(α-D-Ribofuranosyl)neamine] was tested, and the zone of inhibition at 5000 µg/mL ([1]; Bacillus cereus, B. cereus, 5 mg/ml) was 25 mm, the zone of inhibition at 10000 µg/mL ([1]; Bacillus cereus, B. cereus, 10 mg/ml) was 32 mm and the “active against Bacillus cereus” value [1, 20] was “active”. For the same compound, the zone of inhibition at 5000 µg/mL ([2]; Bacillus subtilis, B. subtilis, 5 mg/ml) was 32 mm, the zone of inhibition at 10000 µg/mL ([2]; Bacillus subtilis, B. subtilis, 10 mg/ml) was 34 mm and the “active against Bacillus subtilis” value [2, 20] was “active”. For the same compound, the MIC ([3]; S. aureus 284 UC 76, BHI agar, 37°, 20 h, first table, read-out: Minimum Inhibitory Concentration) was 1000 µg/mL (≈ 2200 µM), the MIC ([3]; read-out: Minimum Inhibitory Concentration, S. aureus UC 76, retest table, group (9), (11), (7α), neamine control) was 62.5 µg/mL (≈ 138 µM) and the MIC [4] was 500 µg/mL (≈ 1100 µM). The MIC [5] was 1000 µg/mL (≈ 2200 µM), the MIC ([6]; read-out: Minimum Inhibitory Concentration, S. hemolyticus UC 152, BHI agar, 37°, 20 h, first table) was 31.2 µg/mL (≈ 68.7 µM) and the MIC ([6]; S. hemolyticus UC 152, retest table, group (9), (11), (7α), neamine control, read-out: Minimum Inhibitory Concentration) was 7.8 µg/mL (≈ 17.2 µM). For the same compound, the MIC ([7]; S. faecalis UC 694, retest table, group (9), (11), (7α), neamine control) was 1000 µg/mL (≈ 2200 µM), the MIC ([7]; St. faecalis UC 694, BHI agar, 37°, 20 h, first table) was over 1000 µg/mL and the MIC ([8]; E. coli UC 45, BHI agar, 37°, 20 h, first table, read-out: Minimum Inhibitory Concentration) was 500 µg/mL (≈ 1100 µM). It also gave an MIC ([8]; read-out: Minimum Inhibitory Concentration, E. coli UC 45, retest table, group (9), (11), (7α), neamine control) of 62.5 µg/mL (≈ 138 µM), an MIC ([9]; P. vulgaris UC 93, BHI agar, 37°, 20 h, first table, read-out: Minimum Inhibitory Concentration) of 1000 µg/mL (≈ 2200 µM) and an MIC ([9]; read-out: Minimum Inhibitory Concentration, P. vulgaris UC 93, retest table, group (9), (11), (7α), neamine control) of 125 µg/mL (≈ 275 µM). The MIC ([10]; read-out: Minimum Inhibitory Concentration, K. pneumoniae UC 58, BHI agar, 37°, 20 h, first table) was 62.5 µg/mL (≈ 138 µM), the MIC ([10]; K. pneumoniae UC 58, retest table, group (9), (11), (7α), neamine control, read-out: Minimum Inhibitory Concentration) was 7.8 µg/mL (≈ 17.2 µM) and the MIC [11] was 500 µg/mL (≈ 1100 µM). The MIC ([12]; BHI agar, 37°, 20 h, first table) was over 1000 µg/mL, the MIC ([12]; retest table, group (9), (11), (7α), neamine control) was 1000 µg/mL (≈ 2200 µM) and the MIC ([13]; D. pneumoniae UC 41, BHI agar, 37°, 20 h, first table, read-out: Minimum Inhibitory Concentration) was over 1000 µg/mL. It also gave an MIC ([13]; read-out: Minimum Inhibitory Concentration, D. pneumoniae UC 41, retest table, group (9), (11), (7α), neamine control) of 125 µg/mL (≈ 275 µM), an MIC [14] of 500 µg/mL (≈ 1100 µM) and an MIC [15] of 125 µg/mL (≈ 275 µM). It also gave an MIC [16] of 1000 µg/mL (≈ 2200 µM), an MIC [17] of 250 µg/mL (≈ 550 µM) and an MIC [18] of 125 µg/mL (≈ 275 µM). It also gave an MIC [19] of 62.5 µg/mL (≈ 138 µM).
